Assay results: patent US20120029187A1, “HALOALKYLSULFONANILIDE DERIVATIVE” (Nissan Chemical Industries, Ltd., priority 2009, published 2012)

Key:
Type in all cases: in vivo
barnyardgrass [1] = experiment: Test Example 1: herbicidal effects in preemergence treatment under submerged conditions; conditions: dose 2.52 g/a
Method in brief: (§1)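 Score 0–5 by mortality (5: ≥90%; 0: <5%), read 3 weeks post-application. Paddy-type cups: alluvial soil under 4 cm water, weeds seeded plus transplanted 2.5-leaf rice; diluted EC dosed onto water surface same day as sowing, g/a basis; greenhouse 25 to 30° C.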

bulrush [2] = experiment: as above; conditions: dose 2.52 g/a
Method in brief: as §1

ducksalad [3] = experiment: as above; conditions: dose 2.52 g/a
Method in brief: as §1

transplanted rice = experiment: Test Example 1: preemergence treatment under submerged conditions, effect on crop; conditions: dose 2.52 g/a
Method in brief: as §1

barnyardgrass [4] = experiment: Test Example 2: herbicidal effects during the vegetation period under submerged conditions; conditions: treatment during the vegetation period under submerged conditions; dose 2.52 g/a
Method in brief: (§2)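 Barnyardgrass, bulrush and ducksalad were co-sown in alluvial soil flooded to 4 cm and grown in a greenhouse at 25 to 30° C. At the 1- or 2-leaf stage, water-diluted emulsifiable concentrates went onto the water surface at set doses (g/a). Herbicidal effect was scored three weeks later on a graded scale.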

bulrush [5] = experiment: as above; conditions: treatment during the vegetation period under submerged conditions; dose 2.52 g/a
Method in brief: as §2

ducksalad [6] = experiment: as above; conditions: treatment during the vegetation period under submerged conditions; dose 2.52 g/a
Method in brief: as §2

Italian ryegrass [7] = experiment: Test Example 3: herbicidal effects in soil treatment; conditions: dose 3.2 g/a
Method in brief: (§3)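 Seeds were sown in sterilized diluvial soil and covered with about 1.5 cm of soil. Compounds, formulated as emulsifiable concentrates and diluted with water, were sprayed evenly over the soil surface at set doses in g/a. Herbicidal effect was scored on a rating scale three weeks later.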

barnyardgrass [8] = experiment: as above; conditions: dose 3.2 g/a
Method in brief: as §3

common chickweed [9] = experiment: as above; conditions: dose 3.2 g/a
Method in brief: as §3

common lambsquater [10] = experiment: as above; conditions: dose 3.2 g/a
Method in brief: as §3

common ragweed [11] = experiment: as above; conditions: dose 3.2 g/a
Method in brief: as §3

giant foxtail [12] = experiment: as above; conditions: dose 3.2 g/a
Method in brief: as §3

large crabgrass [13] = experiment: as above; conditions: dose 3.2 g/a
Method in brief: as §3

posumbu knotweed [14] = experiment: as above; conditions: dose 3.2 g/a
Method in brief: as §3

redroot pigweed [15] = experiment: as above; conditions: dose 3.2 g/a
Method in brief: as §3

velvetleaf [16] = experiment: as above; conditions: dose 3.2 g/a
Method in brief: as §3

water foxtail [17] = experiment: as above; conditions: dose 3.2 g/a
Method in brief: as §3

wild oat [18] = experiment: as above; conditions: dose 3.2 g/a
Method in brief: as §3

Italian ryegrass [19] = experiment: Test Example 4: herbicidal effect in foliage treatment; conditions: dose 3.2 g/a, three weeks after the application
Method in brief: (§4)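 Seeds sown in sterilized diluvial soil under ~1.5 cm soil cover and grown 14 days in a greenhouse at 25 to 30° C. Emulsifiable concentrates diluted with water were then sprayed uniformly on foliage at predetermined doses (g/a). Herbicidal effect was scored three weeks after application on a graded evaluation scale.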

barnyardgrass [20] = experiment: as above; conditions: dose 3.2 g/a, three weeks after the application
Method in brief: as §4

beadstraw = experiment: as above; conditions: dose 3.2 g/a, three weeks after the application
Method in brief: as §4

common chickweed [21] = experiment: as above; conditions: dose 3.2 g/a, three weeks after the application
Method in brief: as §4

common lambsquater [22] = experiment: as above; conditions: dose 3.2 g/a, three weeks after the application
Method in brief: as §4

common ragweed [23] = experiment: as above; conditions: dose 3.2 g/a, three weeks after the application
Method in brief: as §4

giant foxtail [24] = experiment: as above; conditions: dose 3.2 g/a, three weeks after the application
Method in brief: as §4

large crabgrass [25] = experiment: as above; conditions: dose 3.2 g/a, three weeks after the application
Method in brief: as §4

posumbu knotweed [26] = experiment: as above; conditions: dose 3.2 g/a, three weeks after the application
Method in brief: as §4

redroot pigweed [27] = experiment: as above; conditions: dose 3.2 g/a, three weeks after the application
Method in brief: as §4

velvetleaf [28] = experiment: as above; conditions: dose 3.2 g/a, three weeks after the application
Method in brief: as §4

water foxtail [29] = experiment: as above; conditions: dose 3.2 g/a, three weeks after the application
Method in brief: as §4

wild oat [30] = experiment: as above; conditions: dose 3.2 g/a, three weeks after the application
Method in brief: as §4

Row | SMILES | A: barnyardgrass, herbicidal effect (evaluation scale 0-5) (barnyardgrass [1]) | B: bulrush, herbicidal effect (evaluation scale 0-5) (bulrush [2]) | C: ducksalad, herbicidal effect (evaluation scale 0-5) (ducksalad [3]) | a: transplanted rice, effect on crop (evaluation scale 0-5) (transplanted rice) | A: barnyardgrass, herbicidal effect (evaluation scale 0-5) (barnyardgrass [4]) | B: bulrush, herbicidal effect (evaluation scale 0-5) (bulrush [5]) | C: ducksalad, herbicidal effect (evaluation scale 0-5) (ducksalad [6]) | herbicidal effect, H: Italian ryegrass (Italian ryegrass [7]) | herbicidal effect, A: barnyardgrass (barnyardgrass [8]) | herbicidal effect, N: common chickweed (common chickweed [9]) | herbicidal effect, L: common lambsquater (common lambsquater [10]) | herbicidal effect, J: common ragweed (common ragweed [11]) | herbicidal effect, E: giant foxtail (giant foxtail [12]) | herbicidal effect, D: large crabgrass (large crabgrass [13]) | herbicidal effect, M: posumbu knotweed (posumbu knotweed [14]) | herbicidal effect, K: redroot pigweed (redroot pigweed [15]) | herbicidal effect, I: velvetleaf (velvetleaf [16]) | herbicidal effect, G: water foxtail (water foxtail [17]) | herbicidal effect, F: wild oat (wild oat [18]) | H: Italian ryegrass, herbicidal effect (Italian ryegrass [19]) | also measured
1 | CCN1COCN(Cc2ccccc2NS(=O)(=O)C(F)(F)F)C1=O [IV-5] | 5 (mortality of 90% or above (nearly complete death)) | 5 (mortality of 90% or above (nearly complete death)) | 4 (mortality of at least 70% and less than 90%) | 0 (mortality of less than 5% (almost ineffective)) | 5 (mortality of 90% or above (nearly complete death)) | 5 (mortality of 90% or above (nearly complete death)) | 5 (mortality of 90% or above (nearly complete death)) | 4 (mortality of at least 70% and less than 90%) | 5 (mortality of 90% or above (nearly complete death)) | 5 (mortality of 90% or above (nearly complete death)) | 3 (mortality of at least 40% and less than 70%) | 0 (mortality of less than 5% (almost ineffective)) | 5 (mortality of 90% or above (nearly complete death)) | 5 (mortality of 90% or above (nearly complete death)) | 4 (mortality of at least 70% and less than 90%) | 3 (mortality of at least 40% and less than 70%) | 5 (mortality of 90% or above (nearly complete death)) | 5 (mortality of 90% or above (nearly complete death)) | 2 (mortality of at least 20% and less than 40%) | 3 (mortality of at least 40% and less than 70%) | A: barnyardgrass, herbicidal effect (barnyardgrass [20]): 5 (mortality of 90% or above (nearly complete death)); O: beadstraw, herbicidal effect (beadstraw): 3 (mortality of at least 40% and less than 70%); N: common chickweed, herbicidal effect (common chickweed [21]): 4 (mortality of at least 70% and less than 90%); L: common lambsquater, herbicidal effect (common lambsquater [22]): 3 (mortality of at least 40% and less than 70%); J: common ragweed, herbicidal effect (common ragweed [23]): 3 (mortality of at least 40% and less than 70%); E: giant foxtail, herbicidal effect (giant foxtail [24]): 4 (mortality of at least 70% and less than 90%); D: large crabgrass, herbicidal effect (large crabgrass [25]): 4 (mortality of at least 70% and less than 90%); M: posumbu knotweed, herbicidal effect (posumbu knotweed [26]): 0 (mortality of less than 5% (almost ineffective)); K: redroot pigweed, herbicidal effect (redroot pigweed [27]): 0 (mortality of less than 5% (almost ineffective)); I: velvetleaf, herbicidal effect (velvetleaf [28]): 5 (mortality of 90% or above (nearly complete death)); G: water foxtail, herbicidal effect (water foxtail [29]): 5 (mortality of 90% or above (nearly complete death)); F: wild oat, herbicidal effect (wild oat [30]): 0 (mortality of less than 5% (almost ineffective))
2 | CCN1COCN(Cc2ccccc2N(C(=O)OCCCl)S(=O)(=O)C(F)(F)F)C1=O [IV-7] | 5 (mortality of 90% or above (nearly complete death)) | 5 (mortality of 90% or above (nearly complete death)) | 4 (mortality of at least 70% and less than 90%) | 0 (mortality of less than 5% (almost ineffective)) | 5 (mortality of 90% or above (nearly complete death)) | 5 (mortality of 90% or above (nearly complete death)) | 5 (mortality of 90% or above (nearly complete death)) | 4 (mortality of at least 70% and less than 90%) | 5 (mortality of 90% or above (nearly complete death)) | 4 (mortality of at least 70% and less than 90%) | 4 (mortality of at least 70% and less than 90%) | 0 (mortality of less than 5% (almost ineffective)) | 3 (mortality of at least 40% and less than 70%) | 5 (mortality of 90% or above (nearly complete death)) | 0 (mortality of less than 5% (almost ineffective)) | 1 (mortality of at least 5% and less than 20%) | 5 (mortality of 90% or above (nearly complete death)) | 5 (mortality of 90% or above (nearly complete death)) | 1 (mortality of at least 5% and less than 20%) | 3 (mortality of at least 40% and less than 70%) | A: barnyardgrass, herbicidal effect (barnyardgrass [20]): 4 (mortality of at least 70% and less than 90%); O: beadstraw, herbicidal effect (beadstraw): 3 (mortality of at least 40% and less than 70%); N: common chickweed, herbicidal effect (common chickweed [21]): 4 (mortality of at least 70% and less than 90%); L: common lambsquater, herbicidal effect (common lambsquater [22]): 4 (mortality of at least 70% and less than 90%); J: common ragweed, herbicidal effect (common ragweed [23]): 3 (mortality of at least 40% and less than 70%); E: giant foxtail, herbicidal effect (giant foxtail [24]): 4 (mortality of at least 70% and less than 90%); D: large crabgrass, herbicidal effect (large crabgrass [25]): 4 (mortality of at least 70% and less than 90%); M: posumbu knotweed, herbicidal effect (posumbu knotweed [26]): 0 (mortality of less than 5% (almost ineffective)); K: redroot pigweed, herbicidal effect (redroot pigweed [27]): 0 (mortality of less than 5% (almost ineffective)); I: velvetleaf, herbicidal effect (velvetleaf [28]): 4 (mortality of at least 70% and less than 90%); G: water foxtail, herbicidal effect (water foxtail [29]): 5 (mortality of 90% or above (nearly complete death)); F: wild oat, herbicidal effect (wild oat [30]): 0 (mortality of less than 5% (almost ineffective))
